This is an account of results in PubChem BioAssay (NCI).

Assay in all cases: inhibition of tumour cell growth, NCI panel, 48 h
Experiment [1] has as its system KM12 colon.
In experiment [2] the test system is IGROV1 ovarian.
In experiment [3] the test system is HL-60(TB) leukemia.
Experiment [4] deals with HOP-62 NSCLC.
The subject of experiment [5] is SF-295 CNS.
Experiment [6] concerns EKVX NSCLC.
Experiment [7] deals with A549 NSCLC.
The test system of experiment [8] is A498 renal.
The test system of experiment [9] is SW-620 colon.
Experiment [10] deals with MDA-MB-435.

Values joined by “and” are separate entries in the source; they are usually repeats but may differ in a detail not shown here. Equal entries are not always repeated.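 These data come from cells grown in 96-well plates and exposed to compound for 48 hours at five concentrations. Here, GI50 denotes the concentration required for 50% inhibition of growth. TGI is the concentration that stops growth completely.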 A value given as a limit tells only on which side of the number the result lay.

Consider `C[C@@H]1COC(Nc2ccc3ncnc(Nc4ccc(OCc5nccs5)c(Cl)c4)c3c2)=N1`, for which the GI50 in experiment [1] is 4.38 µM and 4.14 µM; in experiment [2], 1.09 µM and 0.544 µM; in experiment [3], 3.7 µM and 4.2 µM; in experiment [4], 6.8 µM and 7.18 µM; in experiment [5], 4.9 µM and 4.54 µM; in experiment [6], 0.252 µM. In addition, the GI50 in experiment [7] is > 10 µM and 5.3 µM; in [8], 3.02 µM and 0.342 µM; in experiment [9], > 10 µM and 14.6 µM; in experiment [10] it was 6.2 µM and 6.24 µM. Further, the TGI is > 10 µM and 33.8 µM in [1]; > 10 µM and 8.03 µM in experiment [2]; greater than 100 µM in experiment [3]; > 10 µM and 20.7 µM in experiment [4]; > 10 µM and 18.6 µM in experiment [5]; greater than 10 µM in experiment [6]. The TGI is > 10 µM and 32.4 µM in experiment [7]; > 10 µM and 6.25 µM in [8]; > 10 µM and 59.7 µM in [9]; > 10 µM and 23.1 µM in [10].

Turning to `COc1ccc2c(c1)C(=O)c1c-2n(CCCN2CCOCC2)c(=O)c2cc([N+](=O)[O-])ccc12`, the GI50 is less than 0.01 µM in [1]; less than 0.01 µM in experiment [2]; less than 0.0193 µM in experiment [3]; less than 0.01 µM in experiment [4]; less than 0.01 µM in experiment [5]; 0.068 µM in experiment [6]. In addition, the GI50 in [7], in experiment [8], in experiment [9] and in experiment [10] was less than 0.01 µM in each case. The TGI was 0.544 µM in experiment [1]; 25.7 µM in [2]; 4.03 µM in experiment [3]; 0.364 µM in experiment [4]; 12 µM in experiment [6]; 3.01 µM in experiment [7]. Moreover, the TGI turned out to be 0.117 µM in [8], 9.2 µM in experiment [9] and 11 µM in [10].

As to `Cc1cc(NC(=O)NC(=O)c2ccccc2NC(=O)CN)ccc1Oc1ncc(Br)cn1`, the GI50 is 0.146 µM in experiment [1]; 0.284 µM in [2]; 0.111 µM and 0.0249 µM in [3]; 0.47 µM in experiment [4]; less than 0.01 µM in [5]; less than 0.01 µM in experiment [8]. Besides, the GI50 in experiment [9] was 0.506 µM; in [10], 0.0399 µM. The TGI in experiment [1] was 34.5 µM and > 100 µM; in experiment [2] it was 27.7 µM and 49.5 µM; in experiment [3], 0.865 µM and 0.175 µM; in [4], 4.18 µM and 22.3 µM; in experiment [6], 39.1 µM and 49.2 µM; in [7], 35.8 µM. Moreover, the TGI in [9] was 23.4 µM and > 100 µM; in experiment [10] it was 1.78 µM and 0.494 µM.

Take `O=C(NC1(C(=O)O)CC1c1ccccc1)c1ccccc1` (stereo not given): the TGI in [1], in experiment [2], in experiment [3], in experiment [4], in experiment [5] and in experiment [6] was greater than 100 µM throughout. Also, the TGI in [7], in experiment [8], in experiment [9] and in experiment [10] was greater than 100 µM in each case.

For the compound `COc1cc(/C=C2\C(=O)Nc3ccccc32)cc(OC)c1OC`, the GI50 is 11.7 µM in [1]; 20 µM in experiment [2]; 8.15 µM in experiment [3]; 22.2 µM in experiment [4]; 28.3 µM in [5]; 18.8 µM in experiment [6]. Moreover, the GI50 was 20.3 µM in experiment [7], 27.4 µM in [8], 19.9 µM in experiment [9] and 4.1 µM in experiment [10]. In addition, the TGI was 98 µM in experiment [1]; greater than 100 µM in experiment [2]; greater than 100 µM in [3]; 62.3 µM in experiment [4]; greater than 100 µM in experiment [5]; greater than 100 µM in [6]. Moreover, the TGI is greater than 100 µM in [7], greater than 100 µM in [8], greater than 100 µM in experiment [9] and 45.1 µM in [10].

Regarding `Oc1cc(Cl)ccc1Cc1ccc(Cl)cc1O`, the GI50 in [1] is 14.8 µM; in experiment [2], 12.5 µM; in experiment [3], 9.67 µM; in [4], 11.7 µM; in experiment [5], 6.34 µM; in [6], 5.56 µM. Further, the GI50 in experiment [7] is 14.7 µM; in experiment [8], 17.4 µM; in [9], 9.73 µM; in experiment [10], 5.37 µM. Further, the TGI in experiment [1] was 28.1 µM; in [2], 31.2 µM; in [3], greater than 100 µM; in [4], 31.7 µM; in [5], 24.6 µM; in [6] it was 36 µM. The TGI in experiment [7] amounted to 41.1 µM; in [8] it was 31.3 µM; in experiment [9], 21.4 µM; in [10], 24.5 µM.

With `CC1(C)N[P+]2(Nc3ccccc3O2)OC1=O` (stereo not given), the TGI in [1], in experiment [2], in experiment [3], in [4], in experiment [5] and in [6] was greater than 100 µM each time. The TGI was greater than 100 µM in experiment [7], greater than 100 µM in experiment [8], greater than 100 µM in [9] and 33.2 µM in experiment [10].

On to `O=[N+]([O-])/C=C/c1ccc([N+](=O)[O-])cc1`, for which the GI50 in experiment [1] is 2.25 µM; in experiment [2] it was 2.06 µM; in [3], 5.38 µM; in experiment [4] it was 10.9 µM; in experiment [5], 6.87 µM; in experiment [6] it was 14.1 µM. Besides, the GI50 was 3.15 µM in experiment [7], 2.98 µM in experiment [8], 1.49 µM in experiment [9] and 1.74 µM in experiment [10]. In addition, the TGI in [1] was 4.71 µM; in [2], 5.29 µM; in experiment [3], 54.8 µM; in [4] it was 23.7 µM; in experiment [5], 24 µM; in experiment [6] it was 31.8 µM. Besides, the TGI in [7] amounted to 13.1 µM; in experiment [8], 10.1 µM; in [9] it was 3.21 µM; in experiment [10], 3.99 µM.

Turning to `Cc1ccc(/C(=C/C=C(C#N)C#N)Sc2ccccn2)cc1`, the GI50 in [1] was 3.33 µM; in experiment [2] it was 4.79 µM; in [3], 0.328 µM; in experiment [4], 6.5 µM; in experiment [5] it was 8.72 µM; in experiment [6], 14.6 µM. Besides, the GI50 is 12.3 µM in experiment [7], 11.6 µM in experiment [8], 0.474 µM in [9] and 4.79 µM in experiment [10]. For the same compound, the TGI is 20.2 µM in experiment [1]; 17.4 µM in experiment [2]; 3.72 µM in experiment [3]; 18 µM in experiment [4]; 22.8 µM in experiment [5]; 31.1 µM in experiment [6]. Further, the TGI in experiment [7] was 31.8 µM; in experiment [8], 24 µM; in [9], 1.96 µM; in [10] it was 13.3 µM.

Turning to `COc1ccc2c(c1)[C@@]1(C)CCC3c4ccc(O)cc4CCC3C1C2` (stereo not given in full), the GI50 was 15.4 µM in experiment [1]; 20.6 µM in experiment [2]; 18.1 µM in [3]; 22.5 µM in experiment [4]; 17.3 µM in experiment [5]; 17.6 µM in experiment [6]. Moreover, the GI50 in [7] was 12.6 µM; in experiment [8], 18.2 µM; in experiment [9], 16.9 µM; in experiment [10] it was 15 µM. The TGI is 36.8 µM in experiment [1]; 48.2 µM in experiment [2]; 39.1 µM in [3]; 37.2 µM in experiment [4]; 33.8 µM in experiment [5]; 33.2 µM in experiment [6]. The TGI in [7] came out at 32.2 µM; in experiment [8], 33.3 µM; in experiment [9], 36.1 µM; in [10] it was 31 µM.

As for `Cc1ccc2nc(N/N=C/c3cccc(C)n3)cc(C)c2c1`, the TGI in [1] was 27.7 µM; in experiment [2], 32 µM; in experiment [3], greater than 100 µM; in [4], 36.8 µM; in experiment [5], 31.6 µM; in [6], 35.7 µM. The TGI in [7] is 43.4 µM; in experiment [8], 37.6 µM; in [9] it was 40.4 µM; in experiment [10], 32 µM.

For `COc1cc2c3c(n(C)c(=O)c2cc1OC)-c1cc2c(cc1/C3=C/[C@H](N)CCCCN)OCO2`, the GI50 in experiment [1] is 2.07 µM; in experiment [2], 1.27 µM; in experiment [3], 13.4 µM; in experiment [4], 1.34 µM; in experiment [5] it was 0.401 µM; in [6] it was 5.93 µM. Also, the GI50 in [7] was 0.622 µM; in [8] it was 4.72 µM; in [9] it was 0.595 µM; in experiment [10], 0.293 µM. Also, the TGI in experiment [1] is greater than 58.5 µM; in experiment [2], 7.43 µM; in [3] it was greater than 100 µM; in [4], 11.6 µM; in experiment [5], 3.31 µM; in [6], greater than 24.8 µM. Also, the TGI in experiment [7] is 24.5 µM; in experiment [8] it was 22.7 µM; in experiment [9] it was greater than 37.9 µM; in experiment [10] it was 4.69 µM.

`NC1=C(Cl)C(=O)c2ccccc2C1=O`: the TGI is 25.7 µM in [1]; 26 µM in experiment [2]; 45.4 µM in experiment [3]; 32 µM in experiment [4]; 18.1 µM in [5]; 28.4 µM in [6]. Further, the TGI in experiment [7] came out at 8.44 µM; in experiment [8] it was 35.7 µM; in [9], 14.6 µM; in experiment [10] it was 2.05 µM.
